Measurements: patent EP0255100A2, “Use of trimetrexate and its salts for the preparation of pharmaceutical compositions for treating infections of the mycobacterium-avium-intracellulare complex” (WARNER-LAMBERT COMPANY, priority 1986, dated 1988)
In brackets after ≈: the same amount, converted by molar mass. Where two headings read alike, the source gives them in different places.

Assays:
[1] = tested on: Mycobacterium avium-intracellulare complex; assay: radiometric assay (14CO2 release from 14C palmitic acid in 7H12 medium, BACTEC 460), percent microorganism killed; type: cell-based; details: for killing at 16 µg/mL: Mycobacterium avium-intracellulare, 168 h, read-out: Percent Microorganism Killed One Week Post
[2] = tested on: Mycobacterium avium-intracellulare complex; assay: minimal inhibitory concentration by the standard T100 growth inhibition method; type: cell-based
Description: The activity of trimetrexate at several concentrations ranging from 2 to 64 micrograms/ml was tested against fifteen strains of Mycobacterium avium-intracellulare isolated from AIDS patients who were also suffering from infections of the MAI complex. Drug activity was measured using both a radiometric assay and growth inhibition analysis by the T100 method. (S.H. Siddiqi et al., J. Clin. Microbiol., 22: 919-923 (1985); S.H. Siddiqi et al., J. Clin. Microbiol., 13: 908-912 (1981); and D.E. Snyder et al., Am. Rev. Respir. Dis., 123: 402-406 (1981).
In a second test, the minimal inhibitory concentration (MIC) required to inhibit 99% and 99.9% growth of the test strains of the Mycobacterium avium-intracellulare complex was determined employing the standard T100 method. The results appear in Table II where the MIC value is given for each of the tested MAI complex strains.

[3] = MAI Complex Strain 109, trimetrexate 16 µg/ml

MIC ([2]; MAI Complex Strain 100, 99% growth inhibition, read-out: Approximate Minimal Inhibitory Concentration (MIC) 99%): 2 µg/mL (≈ 5.41 µM)
MIC ([2]; MAI Complex Strain 100, 99.9% growth inhibition, read-out: Approximate Minimal Inhibitory Concentration (MIC) 99.9%): 2 µg/mL (≈ 5.41 µM)
MIC ([2]; MAI Complex Strain 101, 99% growth inhibition, read-out: Approximate Minimal Inhibitory Concentration (MIC) 99%): 4 µg/mL (≈ 10.8 µM)
MIC ([2]; MAI Complex Strain 101, 99.9% growth inhibition, read-out: Approximate Minimal Inhibitory Concentration (MIC) 99.9%): 4 µg/mL (≈ 10.8 µM)
MIC ([2]; MAI Complex Strain 102, 99% growth inhibition, read-out: Approximate Minimal Inhibitory Concentration (MIC) 99%): 8 µg/mL (≈ 21.7 µM)
MIC ([2]; MAI Complex Strain 102, 99.9% growth inhibition, read-out: Approximate Minimal Inhibitory Concentration (MIC) 99.9%): 8 µg/mL (≈ 21.7 µM)
MIC ([2]; MAI Complex Strain 103, 99% growth inhibition, read-out: Approximate Minimal Inhibitory Concentration (MIC) 99%): 2 µg/mL (≈ 5.41 µM)
MIC ([2]; MAI Complex Strain 103, 99.9% growth inhibition, read-out: Approximate Minimal Inhibitory Concentration (MIC) 99.9%): 2 µg/mL (≈ 5.41 µM)
MIC ([2]; MAI Complex Strain 104, 99% growth inhibition, read-out: Approximate Minimal Inhibitory Concentration (MIC) 99%): 2 µg/mL (≈ 5.41 µM)
MIC ([2]; MAI Complex Strain 104, 99.9% growth inhibition, read-out: Approximate Minimal Inhibitory Concentration (MIC) 99.9%): 2 µg/mL (≈ 5.41 µM)
MIC ([2]; MAI Complex Strain 105, 99% growth inhibition, read-out: Approximate Minimal Inhibitory Concentration (MIC) 99%): 2 µg/mL (≈ 5.41 µM)
MIC ([2]; MAI Complex Strain 105, 99.9% growth inhibition, read-out: Approximate Minimal Inhibitory Concentration (MIC) 99.9%): 2 µg/mL (≈ 5.41 µM)
MIC ([2]; MAI Complex Strain 107, 99% growth inhibition, read-out: Approximate Minimal Inhibitory Concentration (MIC) 99%): 2 µg/mL (≈ 5.41 µM)
MIC ([2]; MAI Complex Strain 107, 99.9% growth inhibition, read-out: Approximate Minimal Inhibitory Concentration (MIC) 99.9%): 2 µg/mL (≈ 5.41 µM)
MIC ([2]; MAI Complex Strain 108, 99% growth inhibition, read-out: Approximate Minimal Inhibitory Concentration (MIC) 99%): 2 µg/mL (≈ 5.41 µM)
MIC ([2]; MAI Complex Strain 108, 99.9% growth inhibition, read-out: Approximate Minimal Inhibitory Concentration (MIC) 99.9%): 2 µg/mL (≈ 5.41 µM)
MIC ([2]; MAI Complex Strain 109, 99% growth inhibition, read-out: Approximate Minimal Inhibitory Concentration (MIC) 99%): 2 µg/mL (≈ 5.41 µM)
MIC ([2]; MAI Complex Strain 109, 99.9% growth inhibition, read-out: Approximate Minimal Inhibitory Concentration (MIC) 99.9%): 2 µg/mL (≈ 5.41 µM)
MIC ([2]; MAI Complex Strain 110, 99% growth inhibition, read-out: Approximate Minimal Inhibitory Concentration (MIC) 99%): 2 µg/mL (≈ 5.41 µM)
MIC ([2]; MAI Complex Strain 110, 99.9% growth inhibition, read-out: Approximate Minimal Inhibitory Concentration (MIC) 99.9%): 2 µg/mL (≈ 5.41 µM)
MIC ([2]; MAI Complex Strain 111, 99% growth inhibition, read-out: Approximate Minimal Inhibitory Concentration (MIC) 99%): 2 µg/mL (≈ 5.41 µM)
MIC ([2]; MAI Complex Strain 111, 99.9% growth inhibition, read-out: Approximate Minimal Inhibitory Concentration (MIC) 99.9%): 2 µg/mL (≈ 5.41 µM)
MIC ([2]; MAI Complex Strain 113, 99% growth inhibition, read-out: Approximate Minimal Inhibitory Concentration (MIC) 99%): 2 µg/mL (≈ 5.41 µM)
MIC ([2]; MAI Complex Strain 113, 99.9% growth inhibition, read-out: Approximate Minimal Inhibitory Concentration (MIC) 99.9%): 2 µg/mL (≈ 5.41 µM)
MIC ([2]; MAI Complex Strain 116, 99% growth inhibition, read-out: Approximate Minimal Inhibitory Concentration (MIC) 99%): 2 µg/mL (≈ 5.41 µM)
MIC ([2]; MAI Complex Strain 116, 99.9% growth inhibition, read-out: Approximate Minimal Inhibitory Concentration (MIC) 99.9%): 2 µg/mL (≈ 5.41 µM)
MIC ([2]; MAI Complex Strain 117, 99% growth inhibition, read-out: Approximate Minimal Inhibitory Concentration (MIC) 99%): 2 µg/mL (≈ 5.41 µM)
MIC ([2]; MAI Complex Strain 117, 99.9% growth inhibition, read-out: Approximate Minimal Inhibitory Concentration (MIC) 99.9%): 2 µg/mL (≈ 5.41 µM)
MIC ([2]; MAI Complex Strain 128, 99% growth inhibition, read-out: Approximate Minimal Inhibitory Concentration (MIC) 99%): 2 µg/mL (≈ 5.41 µM)
MIC ([2]; MAI Complex Strain 128, 99.9% growth inhibition, read-out: Approximate Minimal Inhibitory Concentration (MIC) 99.9%): 2 µg/mL (≈ 5.41 µM)
MIC ([2]; every strain of the MAI complex tested (summary of Table II), read-out: concentration exhibiting inhibitory activity): ≤ 8 µg/mL
Compound: COc1cc(NCc2ccc3nc(N)nc(N)c3c2C)cc(OC)c1OC [trimetrexate, 5-methyl-6-{[(3,4,5-trimethoxyphenyl)amino]methyl}-2-4-quinazolinediamine]
Percent Microorganism Killed One Week Post [1, 3]: 42%
killing at 16 µg/mL ([1]; MAI Complex Strain 100, trimetrexate 16 µg/ml): 65%
killing at 16 µg/mL ([1]; MAI Complex Strain 101, trimetrexate 16 µg/ml): 68%
killing at 16 µg/mL ([1]; MAI Complex Strain 108, trimetrexate 16 µg/ml): 70%
killing at 16 µg/mL [1, 3]: 42%
killing at 16 µg/mL ([1]; MAI Complex Strain 116, trimetrexate 16 µg/ml): 91%
bactericidal activity ([1]; all strains of the MAI complex tested, trimetrexate 16 µg/ml alone): potent bactericidal activity
